Measurements: paper PMC6556873, “Rapid Covalent-Probe Discovery by Electrophile-Fragment Screening” (Journal of the American Chemical Society, 2019)
Like-named read-outs stand apart in the source and are kept apart here.

What was measured:
[1] = in vitro; set-up: species or system HB2, CCD841; conditions: human, hek293 cells
[2] = target: T1, OTUB2 (OTUB2A) (Homo sapiens, UniProt Q96DC9); set-up: Intact protein LC/MS covalent labelling, fragments in pools of five, 200 uM each, 4 °C; conditions: 24 h, 4 °C, pool of five; 200 µM; covalent
T1 construct: full length residues 1-234, E. coli BL21(DE3)-R3, His tag removed by TEV, construct 27312 Da
T1 sequence (Q96DC9 1-234): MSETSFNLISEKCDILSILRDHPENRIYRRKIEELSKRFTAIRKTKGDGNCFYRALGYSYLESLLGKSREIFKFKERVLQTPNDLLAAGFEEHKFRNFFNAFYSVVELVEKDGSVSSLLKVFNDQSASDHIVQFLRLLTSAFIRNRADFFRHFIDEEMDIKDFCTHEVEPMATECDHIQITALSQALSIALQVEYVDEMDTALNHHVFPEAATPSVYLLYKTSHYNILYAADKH

[3] = target: T2, BSA (Bos taurus, UniProt P02769); set-up: Intact protein LC/MS covalent labelling, fragments in pools of five, 200 uM each, 4 °C; conditions: 24 h, 4 °C, pool of five; 200 µM; covalent
T2 construct: gene ALB
T2 sequence (P02769 whole entry, the tested form may be a part): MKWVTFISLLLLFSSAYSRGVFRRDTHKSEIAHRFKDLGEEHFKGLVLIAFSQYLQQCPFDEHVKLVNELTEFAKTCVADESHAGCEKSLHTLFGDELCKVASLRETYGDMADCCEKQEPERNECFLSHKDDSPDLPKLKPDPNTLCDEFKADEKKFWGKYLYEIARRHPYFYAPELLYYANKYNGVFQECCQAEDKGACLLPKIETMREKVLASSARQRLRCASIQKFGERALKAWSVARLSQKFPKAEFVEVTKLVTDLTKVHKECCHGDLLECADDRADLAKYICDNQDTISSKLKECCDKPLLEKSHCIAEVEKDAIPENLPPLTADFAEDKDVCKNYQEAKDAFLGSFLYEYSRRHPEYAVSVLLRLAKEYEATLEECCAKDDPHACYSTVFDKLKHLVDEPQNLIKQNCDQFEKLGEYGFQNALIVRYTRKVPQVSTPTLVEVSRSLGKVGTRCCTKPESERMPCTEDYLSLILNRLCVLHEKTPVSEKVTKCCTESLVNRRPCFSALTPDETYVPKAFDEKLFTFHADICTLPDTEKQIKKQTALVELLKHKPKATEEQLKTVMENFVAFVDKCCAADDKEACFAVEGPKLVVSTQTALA

[4] = target: T3, PCAF (Homo sapiens, UniProt Q92831); set-up: Intact protein LC/MS covalent labelling, fragments in pools of five, 200 uM each, 4 °C; conditions: 24 h, 4 °C, pool of five; 200 µM; covalent
T3 construct: gene KAT2B
T3 sequence (Q92831 whole entry, the tested form may be a part): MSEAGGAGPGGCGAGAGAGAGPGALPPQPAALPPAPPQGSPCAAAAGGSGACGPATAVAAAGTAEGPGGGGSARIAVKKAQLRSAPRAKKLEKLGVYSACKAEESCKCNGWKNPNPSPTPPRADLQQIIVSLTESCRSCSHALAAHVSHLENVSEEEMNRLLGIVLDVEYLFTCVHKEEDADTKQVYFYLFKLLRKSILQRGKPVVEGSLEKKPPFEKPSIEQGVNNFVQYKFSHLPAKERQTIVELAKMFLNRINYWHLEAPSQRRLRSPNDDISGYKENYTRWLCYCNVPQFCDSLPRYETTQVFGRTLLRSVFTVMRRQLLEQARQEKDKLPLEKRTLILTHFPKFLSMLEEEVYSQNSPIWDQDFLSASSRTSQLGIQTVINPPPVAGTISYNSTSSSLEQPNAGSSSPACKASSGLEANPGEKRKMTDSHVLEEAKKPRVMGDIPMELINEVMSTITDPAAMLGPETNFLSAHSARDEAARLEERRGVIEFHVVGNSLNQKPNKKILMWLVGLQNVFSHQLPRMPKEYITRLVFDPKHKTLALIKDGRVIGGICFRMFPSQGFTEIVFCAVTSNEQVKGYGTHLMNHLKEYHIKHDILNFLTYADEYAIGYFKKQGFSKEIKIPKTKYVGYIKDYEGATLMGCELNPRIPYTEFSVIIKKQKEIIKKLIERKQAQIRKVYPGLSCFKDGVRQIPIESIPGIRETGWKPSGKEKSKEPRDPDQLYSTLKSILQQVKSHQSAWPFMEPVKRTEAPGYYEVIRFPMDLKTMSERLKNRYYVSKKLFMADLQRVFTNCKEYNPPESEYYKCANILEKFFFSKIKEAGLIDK

[5] = target: T4, NNMT (hNNMT) (Homo sapiens, UniProt P40261); set-up: Intact protein LC/MS covalent labelling, fragments in pools of five, 200 uM each, 4 °C; conditions: 24 h, 4 °C, pool of five; 200 µM; covalent
T4 construct: wild type, N-terminal His6 tag kept (no cleavage described), E. coli, construct 31248 Da
T4 sequence (P40261 1-264): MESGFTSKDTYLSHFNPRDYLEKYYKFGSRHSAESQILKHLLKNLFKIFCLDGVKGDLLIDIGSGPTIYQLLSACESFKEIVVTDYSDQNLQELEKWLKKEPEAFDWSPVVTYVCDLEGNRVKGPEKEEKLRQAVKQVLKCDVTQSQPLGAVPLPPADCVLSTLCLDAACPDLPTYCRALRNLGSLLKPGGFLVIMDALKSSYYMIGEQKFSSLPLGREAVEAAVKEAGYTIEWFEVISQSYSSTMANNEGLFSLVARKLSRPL

[6] = target: T5, NUDT7 (Homo sapiens, UniProt P0C024); set-up: Intact protein LC/MS covalent labelling, fragments in pools of five, 200 uM each, 4 °C; conditions: 24 h, 4 °C, pool of five; 200 µM; covalent
T5 construct: residues 14-235, E. coli, pNIC28-Bsa4, N-terminal His6 tag removed by TEV, construct 26672 Da
T5 sequence (P0C024 14-235): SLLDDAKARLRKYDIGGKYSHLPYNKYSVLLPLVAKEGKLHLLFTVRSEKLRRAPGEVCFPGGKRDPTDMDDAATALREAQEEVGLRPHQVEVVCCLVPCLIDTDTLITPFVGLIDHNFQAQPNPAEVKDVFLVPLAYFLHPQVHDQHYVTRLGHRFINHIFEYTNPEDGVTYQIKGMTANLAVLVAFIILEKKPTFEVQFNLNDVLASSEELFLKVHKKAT

[7] = in vitro; set-up: species or system HB2, HEK293; conditions: human, ccd841 cells
[8] = in vitro; set-up: species or system CCD841, HEK293; conditions: human, hb2 cells, read-out: HB-2 Cells Viability (%)

With O=C(CCl)N1CCC(C(=O)N2CCCCCC2)CC1 [PCM-0102781] the viability at 48 h, 10 µM [1] was 63.8%, the OTUB2 [2] was 0 and the BSA [3] was 0. For the same molecule, the PCAF [4] was 0, the NNMT [5] was 0 and the NUDT7 [6] was 0. It also gave a viability at 48 h, 10 µM [7] of 92.5% and a viability at 48 h, 10 µM [8] of 90.6%.
For Cc1ccc(S(=O)(=O)NC(=O)CCl)cc1 [PCM-0102850], the viability at 48 h, 10 µM [1] was 81.4%, the OTUB2 [2] was 0.13 and the BSA [3] was 0. The PCAF [4] was 0, the NNMT [5] was 0 and the NUDT7 [6] was 0. It also gave a viability at 48 h, 10 µM [7] of 114% and a viability at 48 h, 10 µM [8] of 101%.
Work on C=CC(=O)N(C)C1CCCCNC1=O (stereo not shown) [PCM-0102484] yielded a viability at 48 h, 10 µM [1] of 122%, an OTUB2 [2] of 0.11 and a BSA [3] of 0. For the same molecule, the PCAF [4] was 0, the NNMT [5] was 0 and the NUDT7 [6] was 0. The viability at 48 h, 10 µM [7] was 101% and the viability at 48 h, 10 µM [8] was 95.7%.
Cc1ccc(C(=O)N2CCN(C(=O)CCl)CC2)cc1 [PCM-0102962] gave a viability at 48 h, 10 µM [1] of 15.6%, an OTUB2 [2] of 0 and a BSA [3] of 0. For the same molecule, the PCAF [4] was 0, the NNMT [5] was 0 and the NUDT7 [6] was 0. The viability at 48 h, 10 µM [7] was 75.3% and the viability at 48 h, 10 µM [8] was 30.1%.
For Cl.O=C(CCl)N1CCN(Cc2ccc3c(c2)CCO3)CC1 [PCM-0102814], the viability at 48 h, 10 µM [1] was 37.6%, the OTUB2 [2] was 0 and the BSA [3] was 0.11. The PCAF [4] was 0, the NNMT [5] was 0.24 and the NUDT7 [6] was 0. For the same molecule, the viability at 48 h, 10 µM [7] was 58.5% and the viability at 48 h, 10 µM [8] was 22.2%.
Work on Cl.O=C(CCl)N1CCN(c2ccccc2F)CC1 [PCM-0102373] yielded a viability at 48 h, 10 µM [1] of 64.3%, an OTUB2 [2] of 0 and a BSA [3] of 0. It also gave a PCAF [4] of 0, an NNMT [5] of 0 and an NUDT7 [6] of 0. The viability at 48 h, 10 µM [7] was 79.7% and the viability at 48 h, 10 µM [8] was 55.8%.
With CN(Cc1ccc(F)cc1)C(=O)CCl [PCM-0102939] the viability at 48 h, 10 µM [1] was 42.7%, the OTUB2 [2] was 0.1 and the BSA [3] was 0. For the same molecule, the PCAF [4] was 0, the NNMT [5] was 0 and the NUDT7 [6] was 0. It also gave a viability at 48 h, 10 µM [7] of 69.2% and a viability at 48 h, 10 µM [8] of 34.8%.
For CCc1nnc(NC(=O)CCl)s1 [PCM-0102166], the viability at 48 h, 10 µM [1] was 95.8%, the OTUB2 [2] was 0 and the BSA [3] was 0. The PCAF [4] was 0, the NNMT [5] was 0.42 and the NUDT7 [6] was 0.21. The viability at 48 h, 10 µM [7] was 92.5% and the viability at 48 h, 10 µM [8] was 94.5%.
O=C(CCl)Nc1oncc1-c1ccccc1 [PCM-0102746] gave a viability at 48 h, 10 µM [1] of 73.3%, an OTUB2 [2] of 0.64 and a BSA [3] of 0. It also gave a PCAF [4] of 0, an NNMT [5] of 0.87 and an NUDT7 [6] of 0. It also gave a viability at 48 h, 10 µM [7] of 71.8% and a viability at 48 h, 10 µM [8] of 72.1%.
O=C(CCl)N1CCCCCC1 [PCM-0102751] showed a viability at 48 h, 10 µM [1] of 73.7%, an OTUB2 [2] of 0 and a BSA [3] of 0. It also gave a PCAF [4] of 0, an NNMT [5] of 0 and an NUDT7 [6] of 0. The viability at 48 h, 10 µM [7] was 85.6% and the viability at 48 h, 10 µM [8] was 99.5%.
O=C(CCl)Nc1ccc2[nH]c(=O)[nH]c2c1 [PCM-0102866] gave a viability at 48 h, 10 µM [1] of 27.5%, an OTUB2 [2] of 0.3 and a BSA [3] of 0. It also gave a PCAF [4] of 0, an NNMT [5] of 0 and an NUDT7 [6] of 0. The viability at 48 h, 10 µM [7] was 73.7% and the viability at 48 h, 10 µM [8] was 77.3%.
N#CSc1ccc(NC(=O)CCl)c(Cl)c1 [PCM-0102506] showed a viability at 48 h, 10 µM [1] of 51.9%, an OTUB2 [2] of 0 and a BSA [3] of 0. It also gave a PCAF [4] of 0, an NNMT [5] of 0.38 and an NUDT7 [6] of 0. The viability at 48 h, 10 µM [7] was 33.4% and the viability at 48 h, 10 µM [8] was 20.6%.
CC(NC(=O)CCl)c1ccc(F)cc1F (stereo not shown) [PCM-0103035] showed a viability at 48 h, 10 µM [1] of 66.4%, an OTUB2 [2] of 0.34 and a BSA [3] of 0. It also gave a PCAF [4] of 0, an NNMT [5] of 0.58 and an NUDT7 [6] of 0.15. For the same molecule, the viability at 48 h, 10 µM [7] was 78.2% and the viability at 48 h, 10 µM [8] was 77.6%.
O=C(CCl)NC(=O)c1ccccc1 [PCM-0102414] showed a viability at 48 h, 10 µM [1] of 91.5%, an OTUB2 [2] of 0 and a BSA [3] of 0. The PCAF [4] was 0, the NNMT [5] was 0 and the NUDT7 [6] was 0. For the same molecule, the viability at 48 h, 10 µM [7] was 101% and the viability at 48 h, 10 µM [8] was 102%.
